Measured values from patent US8614201B2 (Janssen Pharmaceutica NV, priority 2009, dated 2013).

These compounds were tested against Human TRPA1 (Homo sapiens, UniProt O75762) (assay: Assay 1: In vitro cellular testing of TRPA1 modulation (CHO-TREx, Fluo-3 calcium fluorescence, AITC agonist)). Settings: CHO-TREx cells expressing human TRPA1; Fluo-3 fluorescence (FLIPR/Tetra); agonist 15 μM allyl isothiocyanate (AITC); 30 minute antagonist incubation.
Human TRPA1, sequence (O75762 whole entry): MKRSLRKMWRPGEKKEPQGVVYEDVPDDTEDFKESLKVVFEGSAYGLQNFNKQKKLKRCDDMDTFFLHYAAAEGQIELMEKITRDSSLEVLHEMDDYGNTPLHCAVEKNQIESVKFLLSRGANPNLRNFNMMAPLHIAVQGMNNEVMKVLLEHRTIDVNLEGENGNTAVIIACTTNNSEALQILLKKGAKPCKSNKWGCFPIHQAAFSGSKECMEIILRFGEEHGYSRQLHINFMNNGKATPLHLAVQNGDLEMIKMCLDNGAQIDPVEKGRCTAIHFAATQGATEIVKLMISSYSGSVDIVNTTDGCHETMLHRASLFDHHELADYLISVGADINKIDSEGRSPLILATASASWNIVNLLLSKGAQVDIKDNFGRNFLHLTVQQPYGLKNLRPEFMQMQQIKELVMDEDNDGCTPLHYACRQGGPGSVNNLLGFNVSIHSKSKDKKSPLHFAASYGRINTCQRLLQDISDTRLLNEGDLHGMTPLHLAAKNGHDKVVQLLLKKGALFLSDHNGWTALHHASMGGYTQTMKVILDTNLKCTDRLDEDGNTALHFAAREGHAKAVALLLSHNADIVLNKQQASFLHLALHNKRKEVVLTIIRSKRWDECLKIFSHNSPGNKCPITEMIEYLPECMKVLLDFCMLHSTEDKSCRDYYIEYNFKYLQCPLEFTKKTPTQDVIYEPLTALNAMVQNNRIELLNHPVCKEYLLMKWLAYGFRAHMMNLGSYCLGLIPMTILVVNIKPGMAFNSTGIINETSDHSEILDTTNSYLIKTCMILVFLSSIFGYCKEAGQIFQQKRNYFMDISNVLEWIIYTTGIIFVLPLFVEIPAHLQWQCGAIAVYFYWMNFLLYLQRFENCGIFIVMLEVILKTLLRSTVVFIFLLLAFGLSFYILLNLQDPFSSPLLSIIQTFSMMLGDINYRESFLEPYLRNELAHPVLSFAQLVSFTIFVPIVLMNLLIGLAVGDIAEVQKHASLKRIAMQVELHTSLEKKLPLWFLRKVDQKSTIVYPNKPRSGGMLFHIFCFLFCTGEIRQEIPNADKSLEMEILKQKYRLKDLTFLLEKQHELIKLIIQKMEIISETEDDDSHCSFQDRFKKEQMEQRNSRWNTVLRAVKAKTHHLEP
Type: cell-based
Set-up: expressed in transfected cells; host or cells: CHO-TREx cells (Invitrogen), vector pcDNA4/TO
In short: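 Tetracycline-induced CHO-TREx cells stably expressing human TRPA1, loaded with 4 μM Fluo-3 AM, preincubated 30 min with compound (serial dilution typically from 10 μM, three-fold steps) in HEPES saline pH 7.4. Fluorescence change over 3 min after 15 μM AITC; IC50 from Hill fit versus no-antagonist and 10 μM ruthenium red controls.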
O=C(NCc1cccc(-c2ccc(C(F)(F)F)cc2)c1)[C@@H]1C[C@H](O)CN1S(=O)(=O)c1ccc(F)cc1 [Example 121, (2S,4S)-1-(4-Fluoro-benzenesulfonyl)-4-hydroxy-pyrrolidine-2-carboxylic acid (4′-trifluoromethyl-biphenyl-3-ylmethyl)-amide] showed an IC50 of 1530 nM.
In the case of O=C(NCc1cccc(-c2ccc(C(F)(F)F)cc2)c1)[C@@H]1C[C@@H](O)CN1S(=O)(=O)c1ccc(F)cc1 [Example 122, (2S,4R)-1-(4-Fluoro-benzenesulfonyl)-4-hydroxy-pyrrolidine-2-carboxylic acid (4′-trifluoromethyl-biphenyl-3-ylmethyl)-amide], the IC50 is reported as 267 nM.
With O=C(NCc1ccnc(-c2ccc(C(F)(F)F)cc2)c1)[C@@H]1CCCN1S(=O)(=O)c1ccc(F)cc1 [Example 123, 1-(4-Fluoro-benzenesulfonyl)-pyrrolidine-2S-carboxylic acid [2-(4-trifluoromethyl-phenyl)-pyridin-4-ylmethyl]-amide] the IC50 was 32 nM.
For O=C(NCc1ccnc(-c2ccc(C(F)(F)F)cc2)c1)[C@@H]1CCCN1S(=O)(=O)c1ccc(Cl)s1 [Example 124, 1-(5-Chlorothiophene-2-sulfonyl)pyrrolidine-2S-carboxylic acid [2-(4-trifluoromethylphenyl)-pyridin-4-ylmethyl]-amide], the IC50 was 11 nM.
For O=C(NCc1ccnc(-c2ccc(C(F)(F)F)cc2)c1)[C@@H]1CC(F)(F)CN1S(=O)(=O)c1ccc(F)cc1 [Example 125, 4,4-Difluoro-1-(4-fluorobenzenesulfonyl)-pyrrolidine-2S-carboxylic acid [2-(4-trifluoromethylphenyl)-pyridin-4-ylmethyl]-amide], the IC50 was 63 nM.
O=C(NCc1ccnc(-c2ccc(C(F)(F)F)cc2)c1)[C@@H]1CC(F)(F)CN1S(=O)(=O)c1ccc(Cl)s1 [Example 126, 1-(5-Chlorothiophene-2-sulfonyl)-4,4-difluoropyrrolidine-2S-carboxylic acid [2-(4-trifluoromethylphenyl)-pyridin-4-ylmethyl]-amide] gave an IC50 of 46 nM.
O=C(NCc1ccnc(-c2ccc(C(F)(F)F)cc2)c1)[C@@H]1C=CCN1S(=O)(=O)c1ccc(F)cc1 [Example 127, 1-(4-Fluorobenzenesulfonyl)-2,5-dihydro-1H-pyrrole-2S-carboxylic acid [2-(4-trifluoromethylphenyl)-pyridin-4-ylmethyl]-amide] showed an IC50 of 42 nM.
O=C(NCc1ccnc(-c2ccc(C(F)(F)F)cc2)c1)[C@@H]1C=CCN1S(=O)(=O)c1ccc(Cl)s1 [Example 128, 1-(5-Chlorothiophene-2-sulfonyl)-2,5-dihydro-1H-pyrrole-2S-carboxylic acid [2-(4-trifluoromethylphenyl)-pyridin-4-ylmethyl]-amide] showed an IC50 of 49 nM.
With O=C(NCc1ccnc(-c2ccc(OC(F)(F)F)cc2)c1)[C@@H]1CCCN1S(=O)(=O)c1ccc(F)cc1 [Example 129, 1-(4-Fluoro-benzenesulfonyl)-pyrrolidine-2S-carboxylic acid [2-(4-trifluoromethoxy-phenyl)-pyridin-4-ylmethyl]-amide] the IC50 was 19 nM.
Compound O=C(NCc1ccnc(-c2ccc(OC(F)(F)F)cc2)c1)[C@@H]1CCCN1S(=O)(=O)c1ccc(Cl)s1 [Example 130, 1-(5-Chloro-thiophene-2-sulfonyl)-pyrrolidine-2S-carboxylic acid [2-(4-trifluoromethoxy-phenyl)-pyridin-4-ylmethyl]-amide] has an IC50 of 6 nM.
Compound O=C(NCc1ccnc(-c2ccc(OC(F)(F)F)cc2)c1)[C@@H]1CC(F)(F)CN1S(=O)(=O)c1ccc(F)cc1 [Example 131, 4,4-Difluoro-1-(4-fluoro-benzenesulfonyl)-pyrrolidine-2S-carboxylic acid [2-(4-trifluoromethoxy-phenyl)-pyridin-4-ylmethyl]-amide] has an IC50 of 87 nM.
In the case of O=C(NCc1ccnc(-c2ccc(OC(F)(F)F)cc2)c1)[C@@H]1CC(F)(F)CN1S(=O)(=O)c1ccc(Cl)s1 [Example 132, 1-(5-Chloro-thiophene-2-sulfonyl)-4,4-difluoro-pyrrolidine-2S-carboxylic acid [2-(4-trifluoromethoxy-phenyl)-pyridin-4-ylmethyl]-amide], the IC50 is reported as 117 nM.
With O=C(NCc1ccnc(-c2ccc(OC(F)(F)F)cc2)c1)[C@@H]1C=CCN1S(=O)(=O)c1ccc(F)cc1 [Example 133, 1-(4-Fluoro-benzenesulfonyl)-2,5-dihydro-1H-pyrrole-2S-carboxylic acid [2-(4-trifluoromethoxy-phenyl)-pyridin-4-ylmethyl]-amide] the IC50 was 26 nM.
In the case of O=C(NCc1ccnc(-c2ccc(OC(F)(F)F)cc2)c1)[C@@H]1C=CCN1S(=O)(=O)c1ccc(Cl)s1 [Example 134, 1-(5-Chloro-thiophene-2-sulfonyl)-2,5-dihydro-1H-pyrrole-2S-carboxylic acid [2-(4-trifluoromethoxy-phenyl)-pyridin-4-ylmethyl]-amide], the IC50 is reported as 21 nM.
Work on O=C(NCc1cc(-c2ccc(C(F)(F)F)cc2)ccn1)[C@@H]1CCCN1S(=O)(=O)c1ccc(F)cc1 [Example 135, 1-(4-Fluoro-benzenesulfonyl)-pyrrolidine-2S-carboxylic acid [4-(4-trifluoromethyl-phenyl)-pyridin-2-ylmethyl]-amide] yielded an IC50 of 22 nM.
O=C(NCc1cc(-c2ccc(C(F)(F)F)cc2)ccn1)[C@@H]1CCCN1S(=O)(=O)c1ccc(Cl)s1 [Example 136, 1-(5-Chloro-thiophene-2-sulfonyl)-pyrrolidine-2S-carboxylic acid [4-(4-trifluoromethyl-phenyl)-pyridin-2-ylmethyl]-amide] gave an IC50 of 35 nM.
Compound O=C(NCc1cc(-c2ccc(OC(F)(F)F)cc2)ccn1)[C@@H]1CCCN1S(=O)(=O)c1ccc(F)cc1 [Example 137, 1-(4-Fluoro-benzenesulfonyl)-pyrrolidine-2S-carboxylic acid [4-(4-trifluoromethoxy-phenyl)-pyridin-2-ylmethyl]-amide] has an IC50 of 37 nM.
In the case of O=C(NCc1cc(-c2ccc(OC(F)(F)F)cc2)ccn1)[C@@H]1CCCN1S(=O)(=O)c1ccc(Cl)s1 [Example 138, 1-(5-Chloro-thiophene-2-sulfonyl)-pyrrolidine-2S-carboxylic acid [4-(4-trifluoromethoxy-phenyl)-pyridin-2-ylmethyl]-amide], the IC50 is reported as 17 nM.
Work on O=C(NCc1cc(-c2ccc(C(F)(F)F)cc2)ccn1)[C@@H]1CC(F)(F)CN1S(=O)(=O)c1ccc(F)cc1 [Example 139, 4,4-Difluoro-1-(4-fluoro-benzenesulfonyl)-pyrrolidine-2S-carboxylic acid [4-(4-trifluoromethyl-phenyl)-pyridin-2-ylmethyl]-amide] yielded an IC50 of 73 nM.
With O=C(NCc1cc(-c2ccc(C(F)(F)F)cc2)ccn1)[C@@H]1CC(F)(F)CN1S(=O)(=O)c1ccc(Cl)s1 [Example 140, 1-(5-Chloro-thiophene-2-sulfonyl)-4,4-difluoro-pyrrolidine-2S-carboxylic acid [4-(4-trifluoromethyl-phenyl)-pyridin-2-ylmethyl]-amide] the IC50 was 79 nM.
O=C(NCc1cc(-c2ccc(OC(F)(F)F)cc2)ccn1)[C@@H]1CC(F)(F)CN1S(=O)(=O)c1ccc(F)cc1 [Example 141, 4,4-Difluoro-1-(4-fluoro-benzenesulfonyl)-pyrrolidine-2S-carboxylic acid [4-(4-trifluoromethoxy-phenyl)-pyridin-2-ylmethyl]-amide] was tested, and the IC50 was 73 nM.
For O=C(NCc1cc(-c2ccc(OC(F)(F)F)cc2)ccn1)[C@@H]1CC(F)(F)CN1S(=O)(=O)c1ccc(Cl)s1 [Example 142, 1-(5-Chloro-thiophene-2-sulfonyl)-4,4-difluoro-pyrrolidine-2S-carboxylic acid [4-(4-trifluoromethoxy-phenyl)-pyridin-2-ylmethyl]-amide], the IC50 was 78 nM.
O=C(NCc1cc(-c2ccc(C(F)(F)F)cc2)ccn1)[C@@H]1C=CCN1S(=O)(=O)c1ccc(F)cc1 [Example 143, 1-(4-Fluoro-benzenesulfonyl)-2,5-dihydro-1H-pyrrole-2S-carboxylic acid [4-(4-trifluoromethyl-phenyl)-pyridin-2-ylmethyl]-amide] was tested, and the IC50 was 10 nM.
With O=C(NCc1cc(-c2ccc(C(F)(F)F)cc2)ccn1)[C@@H]1C=CCN1S(=O)(=O)c1ccc(Cl)s1 [Example 144, 1-(5-Chloro-thiophene-2-sulfonyl)-2,5-dihydro-1H-pyrrole-2S-carboxylic acid [4-(4-trifluoromethyl-phenyl)-pyridin-2-ylmethyl]-amide] the IC50 was 22 nM.
Compound O=C(NCc1cc(-c2ccc(OC(F)(F)F)cc2)ccn1)[C@@H]1C=CCN1S(=O)(=O)c1ccc(F)cc1 [Example 145, 1-(4-Fluoro-benzenesulfonyl)-2,5-dihydro-1H-pyrrole-2S-carboxylic acid [4-(4-trifluoromethoxy-phenyl)-pyridin-2-ylmethyl]-amide] has an IC50 of 28 nM.
Work on O=C(NCc1cc(-c2ccc(OC(F)(F)F)cc2)ccn1)[C@@H]1C=CCN1S(=O)(=O)c1ccc(Cl)s1 [Example 146, 1-(5-Chloro-thiophene-2-sulfonyl)-2,5-dihydro-1H-pyrrole-2S-carboxylic acid [4-(4-trifluoromethoxy-phenyl)-pyridin-2-ylmethyl]-amide] yielded an IC50 of 52 nM.
With O=C(NCc1cc(-c2ccc(C(F)(F)F)cc2)ncn1)[C@@H]1CCCN1S(=O)(=O)c1ccc(Br)cc1 [Example 147, 1-(4-Bromobenzenesulfonyl)-pyrrolidine-2S-carboxylic acid [6-(4-trifluoromethylphenyl)-pyrimidin-4-ylmethyl]-amide] the IC50 was 92 nM.
O=C(NCc1cc(-c2ccc(C(F)(F)F)cc2)ncn1)[C@@H]1CCCN1S(=O)(=O)c1ccc(F)c(F)c1 [Example 148, 1-(3,4-Difluorobenzenesulfonyl)-pyrrolidine-2S-carboxylic acid [6-(4-trifluoromethylphenyl)-pyrimidin-4-ylmethyl]-amide] was tested, and the IC50 was 28 nM.
